Reference: US10729643B2, “Methods for administration and methods for treating cardiovascular diseases with resiniferatoxin” (priority 2013, dated 2020)
Like-named read-outs stand apart in the source and are kept apart here.

Tests used:
[1] = tested on: cardiac sympathetic afferent input; settings: anesthetized CHF dogs; acute epicardial application; cited from earlier work
[2] = tested on: cardiac sympathetic afferent input; settings: anesthetized CHF rats; acute epicardial application; cited from earlier work
[3] = tested on: infarcted heart / CSAR activation; experiment: Cardiac plasma extravasation (Evans Blue area); type: in vivo, rat; settings: i.v.
Source text: This example illustrates local anti-inflammatory effects of RTX in the infarcted heart. Myocardial ischemia causes the production and release of several metabolites including bradykinin, prostaglandins and protons that stimulate cardiac sympathetic afferent nerve endings leading to increases in BP, HR and sympathetic nerve activity. As cardiac TRPV1-expressing sympathetic afferents also subserve a “dual sensory-efferent” function and release pro-inflammatory neuropeptides, we hypothesized that plasma extravasation and cardiac neuroinflammation follows myocardial ischemia. […] Inflammation in the infarct area may be due to tissue death whereas in peri-infarct and remote areas may be due to cardiac sympathetic afferent mediated neuroinflammation. This may explain why RTX prevented cardiac inflammation in non-infarct areas to a greater extent than in the infarct area.

| Compound | baseline MAP, HR and RSNA [1] | baseline MAP, HR and RSNA [2] | cardiac plasma extravasation after MI (Evans Blue area) ([3]; Spantide II 0.3 mg/kg, 2 min prior to injection of Evans Blue) | plasma extravasation following CSAR activation by epicardial capsaicin or bradykinin ([3]; acute pretreatment with Spantide II, 0.3 mg/kg) |
| --- | --- | --- | --- | --- |
| CCN(CC)CC(=O)Nc1c(C)cccc1C [lidocaine] | decreased | decreased |  |  |
| Spantide II |  |  | attenuated | largely be abolished |
